Measurements as given in the supplement of paper PMC13380429.

How the values were obtained:
Details in all cases: 72 h
Caco-2 [1] = assay: cell viability relative to DMSO; higher = less toxic
Calu-3 [2] = assay: as above
HepG2 [3] = assay: as above
U2OS [4] = assay: as above
Vero E6 [5] = assay: as above
Caco-2 [6] = assay: relative viability EC50 (midpoint between 100% and the lowest measured viability); higher = less toxic
Calu-3 [7] = assay: as above
U2OS [8] = assay: as above
Vero E6 [9] = assay: as above
Caco-2 [10] = assay: drug sensitivity score (DSS) for viability; higher = more toxic; extreme values may be limits of the assay
Calu-3 [11] = assay: as above
HepG2 [12] = assay: as above
U2OS [13] = assay: as above
Vero E6 [14] = assay: as above
HepG2 [15] = assay: relative viability EC50 (midpoint between 100% and the lowest measured viability); higher = less toxic

Row | SMILES | cell viability (Caco-2 [1]; 1 nM) | cell viability (Caco-2 [1]; 10 nM) | cell viability (Caco-2 [1]; 100 nM) | cell viability (Caco-2 [1]; 1000 nM) | cell viability (Caco-2 [1]; 10000 nM) | cell viability (Calu-3 [2]; 1 nM) | cell viability (Calu-3 [2]; 10 nM) | cell viability (Calu-3 [2]; 100 nM) | cell viability (Calu-3 [2]; 1000 nM) | cell viability (Calu-3 [2]; 10000 nM) | cell viability (HepG2 [3]; 1 nM) | cell viability (HepG2 [3]; 10 nM) | cell viability (HepG2 [3]; 100 nM) | cell viability (HepG2 [3]; 1000 nM) | cell viability (HepG2 [3]; 10000 nM) | cell viability (U2OS [4]; 1 nM) | cell viability (U2OS [4]; 10 nM) | cell viability (U2OS [4]; 100 nM) | cell viability (U2OS [4]; 1000 nM) | cell viability (U2OS [4]; 10000 nM) | cell viability (Vero E6 [5]; 1 nM) | cell viability (Vero E6 [5]; 10 nM) | cell viability (Vero E6 [5]; 100 nM) | cell viability (Vero E6 [5]; 1000 nM) | cell viability (Vero E6 [5]; 10000 nM) | relative viability EC50 (Caco-2 [6]) | relative viability EC50 (Calu-3 [7]) | relative viability EC50 (U2OS [8]) | relative viability EC50 (Vero E6 [9]) | drug sensitivity score (Caco-2 [10]) | drug sensitivity score (Calu-3 [11]) | drug sensitivity score (HepG2 [12]) | drug sensitivity score (U2OS [13]) | drug sensitivity score (Vero E6 [14]) | relative viability EC50 (HepG2 [15])
1 | O=C1Nc2ccc(I)cc2C1=Cc1cc(Br)c(O)c(Br)c1 [GW-5074] | 95.6% | 97.5% | 108% | 95% | 88.3% | 95.1% | 94.2% | 104% | 90.9% | 114% | 90.3% | 98.5% | 97.3% | 97.5% | 68.9% | 99.3% | 97.3% | 100% | 96.1% | 95.5% | 97% | 97.3% | 95.8% | 96% | 108% | > 10 µM | > 10 µM | > 10 µM | > 10 µM | 0.2 | 0 | 1.8 | 0 | 0 | –
2 | CCc1ccc2c(-c3cccc(Cl)c3)nc(=O)n(CC)c2n1 [YM-976] | 104% | 95.6% | 104% | 109% | 97.1% | 109% | 98.7% | 101% | 98.3% | 108% | 95.9% | 104% | 97% | 103% | 86.3% | – | – | – | – | – | 96.6% | 97.3% | 92.3% | 90.1% | 91.9% | > 10 µM | > 10 µM | – | > 10 µM | 0 | 0 | 0.1 | – | 0 | > 10 µM
3 | O=c1c2ccccc2[se]n1-c1ccccc1 [ebselen] | 88% | 102% | 107% | 88.5% | 100% | 107% | 93.5% | 91.3% | 87.6% | 111% | – | – | – | – | – | 97.4% | 98.7% | 105% | 97.4% | 102% | 96.4% | 98.5% | 99.4% | 97.6% | 104% | > 10 µM | > 10 µM | > 10 µM | > 10 µM | 0 | 0 | – | 0 | 0 | –
4 | COc1ccc([C@@H]2CC(=O)c3c(O)cc(O)cc3O2)cc1O [hesperetin] | 104% | 88.5% | 92.7% | 104% | 98.4% | 102% | 93.7% | 102% | 93% | 89.2% | – | – | – | – | – | 104% | 96.3% | 97.1% | 99.8% | 102% | 94.9% | 98.7% | 98.9% | 90.1% | 108% | > 10 µM | > 10 µM | > 10 µM | > 10 µM | 0 | 0.1 | – | 0 | 0 | –
5 | Oc1c(Cl)cc(Cl)c(Cl)c1Cc1c(O)c(Cl)cc(Cl)c1Cl [hexachlorophene] | 95% | 97.1% | 92.3% | 91.6% | 20.9% | 107% | 103% | 107% | 99.4% | 94.2% | 98% | 98.3% | 94% | 94.4% | 23.8% | 97.8% | 96.8% | 92.9% | 96.1% | 70.9% | 102% | 102% | 100% | 99.9% | 82% | 2.29 µM | > 10 µM | – | > 10 µM | 5.8 | 0 | 5.1 | 1.9 | 0.5 | 2.57 µM
6 | O=C1N[C@@H]2[C@@H](O)[C@@H](O)[C@H](O)[C@@H](CO)N2C1=O [kifunensine] | 98.5% | 105% | 91.8% | 75.1% | 67.5% | 100% | 106% | 103% | 90.7% | 93% | 95.6% | 103% | 99.4% | 98.7% | 82.6% | 104% | 102% | 96.2% | 97.4% | 99% | 107% | 89.7% | 96.2% | 94.5% | 84.2% | – | > 10 µM | > 10 µM | > 10 µM | 4.8 | 0 | 0.5 | 0 | 0.3 | > 10 µM
